Laboratory results as given in US7776833B2, “Use of cyclic bioisosters of purine system derivatives for treating diseases produced by disorders of niterergic and dopaminergic systems” (priority 2003, dated 2010).

Tests used:
Format in all cases: in vivo, Wistar rats
[1] = system: physical dependence from morphine (morphine abstinence); assay: Morphine abstinence syndrome, signs scored in the open field test; details: Morphine − (morphine + compound); compound 3 x 20 mg/kg intramuscularly; one value for the three compounds
[2] = system: nitrites and nitrates (NOx-); assay: Measurement of nitrates/nitrites (NOx-) in brain regions after the morphine abstinence experiment; details: 3 x 20 mg/kg intramuscularly
Method in brief: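 Rat brain regions homogenized in 20 mM HEPES pH 7.5 at 4 °C; deproteinized supernatants treated with nitrate reductase, 25 μM NADPH, 25 μM FAD (37 °C, 30 min), then DAN in acid; naphthotriazole fluorescence (ex 365/em 405 nm) against sodium nitrate standard, expressed as nmol/mg protein (Bradford).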

[3] = system: nitric oxide synthase (NOS); assay: Nitric oxide synthase activity in brain regions, radiometric [3H]L-citrulline method; details: 3 x 20 mg/kg intramuscularly
Method in brief: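 Rat cortex, hippocampus, mesencephalon, striatum, brainstem, hypothalamus and cerebellum were homogenized in 20 mM HEPES pH 7.5, and the 11000 g supernatant was incubated 15-60 min at 37 °C with [3H]L-arginine, 0.2 mM CaCl2, FAD, FMN, NADPH and BH4. [3H]L-citrulline was counted after Dowex removal of arginine. Ca2+-dependent/independent activity was split using EDTA ± L-NAME, per mg Bradford protein.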

[4] = Groups Nos. 3-14, compound without morphine, one value for all 12 compounds
[5] = Morphine + compound, one value for the three compounds

Row | SMILES | Authentic differences (ξ-square criterion) in appearance of signs of abstinence: <<Wet dog>> shakes [1] | Authentic differences (ξ-square criterion) in appearance of signs of abstinence: Aggression [1] | Authentic differences (ξ-square criterion) in appearance of signs of abstinence: Convulsions [1] | Authentic differences (ξ-square criterion) in appearance of signs of abstinence: Diarrhea [1] | Authentic differences (ξ-square criterion) in appearance of signs of abstinence: Dyspnea [1] | Authentic differences (ξ-square criterion) in appearance of signs of abstinence: Forelimb jogging [1] | Authentic differences (ξ-square criterion) in appearance of signs of abstinence: Grit with teeth [1] | Authentic differences (ξ-square criterion) in appearance of signs of abstinence: Mastication [1] | Authentic differences (ξ-square criterion) in appearance of signs of abstinence: Piloerection [1] | Authentic differences (ξ-square criterion) in appearance of signs of abstinence: Ptosis [1] | Authentic differences (ξ-square criterion) in appearance of signs of abstinence: Rhinorrhea [1] | Authentic differences (ξ-square criterion) in appearance of signs of abstinence: Squeak when touched [1] | Nitrites, brainstem [2, 4] | Nitrites, cerebellum [2, 4] | Nitrites, cerebral cortex [2, 4] | Nitrites, hippocampus [2, 4] | Nitrites, hypothalamus [2, 4] | Nitrites, midbrain [2, 4] | Nitrites, striatum [2, 4] | Nitrites, brainstem [2, 5] | also measured
1 | O=c1[nH][nH]c(=O)c2ncncc12.[Li] [Compound 35, lithium salt of pyrimido[4,5-d]-6H-pyridazine-5,8-dione] | 1.0000 | 0.8456 | 0.5578 | 0.0001 | 0.0685 | 0.9321 | 0.7003 | 0.1888 | 0.2345 | 0.0232 | 0.2935 | 0.2035 | 6.31 ± 0.58 nmol/mg of protein | 6.66 ± 0.63 nmol/mg of protein | 4.31 ± 0.37 nmol/mg of protein | 6.47 ± 0.72 nmol/mg of protein | 6.77 ± 0.83 nmol/mg of protein | 6.65 ± 0.70 nmol/mg of protein | 6.11 ± 0.29 nmol/mg of protein | 6.87 ± 0.81 nmol/mg of protein | Nitrites, cerebellum [2, 5]: 5.93 ± 0.54 nmol/mg of protein; Nitrites, cerebral cortex [2, 5]: 4.84 ± 0.31 nmol/mg of protein; Nitrites, hippocampus [2, 5]: 5.31 ± 0.33 nmol/mg of protein; Nitrites, hypothalamus [2, 5]: 6.77 ± 0.46 nmol/mg of protein; Nitrites, midbrain [2, 5]: 5.95 ± 0.52 nmol/mg of protein; Nitrites, striatum [2, 5]: 3.57 ± 0.42 nmol/mg of protein; Activity of NOS, hippocampus [3, 4]: 3.09 ± 0.16 nmol/min/mg of protein; Activity of NOS, hypothalamus [3, 4]: 5.45 ± 0.24 nmol/min/mg of protein; Activity of NOS, midbrain [3, 4]: 2.60 ± 0.29 nmol/min/mg of protein; Activity of NOS, striatum [3, 4]: 1.26 ± 0.08 nmol/min/mg of protein; Activity of NOS, hippocampus [3, 5]: 2.65 ± 0.15 nmol/min/mg of protein; Activity of NOS, hypothalamus [3, 5]: 5.56 ± 0.34 nmol/min/mg of protein; Activity of NOS, midbrain [3, 5]: 1.89 ± 0.27 nmol/min/mg of protein; Activity of NOS, striatum [3, 5]: 1.34 ± 0.09 nmol/min/mg of protein
2 | O=C([O-])c1cnc2c(=O)[nH]n([C@@H]3O[C@H](CO)[C@@H](O)[C@H]3O)c(=O)c2n1.O=C([O-])c1cnc2c(=O)[nH]n([C@@H]3O[C@H](CO)[C@@H](O)[C@H]3O)c(=O)c2n1.[Na+].[Na+] [Compound 24, disodium salt of 2-carboxy-7-(β-D-ribofuranosile)pyrazino[2,3-d]-6H-pyridazine-5,8-dione] | 0.7821 | 0.7921 | 0.3456 | 0.0067 | 0.0567 | 0.6745 | 0.2994 | 0.1975 | 0.2567 | 0.0105 | 0.2131 | 0.1968 | 6.31 ± 0.58 nmol/mg of protein | 6.66 ± 0.63 nmol/mg of protein | 4.31 ± 0.37 nmol/mg of protein | 6.47 ± 0.72 nmol/mg of protein | 6.77 ± 0.83 nmol/mg of protein | 6.65 ± 0.70 nmol/mg of protein | 6.11 ± 0.29 nmol/mg of protein | 7.07 ± 0.85 nmol/mg of protein | Nitrites, cerebellum [2, 5]: 5.76 ± 0.49 nmol/mg of protein; Nitrites, cerebral cortex [2, 5]: 4.62 ± 0.27 nmol/mg of protein; Nitrites, hippocampus [2, 5]: 5.27 ± 0.41 nmol/mg of protein; Nitrites, hypothalamus [2, 5]: 6.87 ± 0.75 nmol/mg of protein; Nitrites, midbrain [2, 5]: 5.99 ± 0.58 nmol/mg of protein; Nitrites, striatum [2, 5]: 3.57 ± 0.42 nmol/mg of protein; Activity of NOS, hippocampus [3, 4]: 3.09 ± 0.16 nmol/min/mg of protein; Activity of NOS, hypothalamus [3, 4]: 5.45 ± 0.24 nmol/min/mg of protein; Activity of NOS, midbrain [3, 4]: 2.60 ± 0.29 nmol/min/mg of protein; Activity of NOS, striatum [3, 4]: 1.26 ± 0.08 nmol/min/mg of protein; Activity of NOS, hippocampus [3, 5]: 2.33 ± 0.11 nmol/min/mg of protein; Activity of NOS, hypothalamus [3, 5]: 5.47 ± 0.32 nmol/min/mg of protein; Activity of NOS, midbrain [3, 5]: 2.03 ± 0.31 nmol/min/mg of protein; Activity of NOS, striatum [3, 5]: 1.21 ± 0.10 nmol/min/mg of protein
3 | O=c1[nH][nH]c(=O)c2c(Br)ncnc12.[K] [Compound 37, potassium salt of 4-bromine-pyrimido[4,5-d]-6H-pyridazine-5,8-dione] | 1.0000 | 0.8456 | 0.5578 | 0.0001 | 0.0685 | 0.9321 | 0.7003 | 0.1888 | 0.2345 | 0.0232 | 0.2935 | 0.2035 | 6.31 ± 0.58 nmol/mg of protein | 6.66 ± 0.63 nmol/mg of protein | 4.31 ± 0.37 nmol/mg of protein | 6.47 ± 0.72 nmol/mg of protein | 6.77 ± 0.83 nmol/mg of protein | 6.65 ± 0.70 nmol/mg of protein | 6.11 ± 0.29 nmol/mg of protein | 6.87 ± 0.81 nmol/mg of protein | Nitrites, cerebellum [2, 5]: 5.93 ± 0.54 nmol/mg of protein; Nitrites, cerebral cortex [2, 5]: 4.84 ± 0.31 nmol/mg of protein; Nitrites, hippocampus [2, 5]: 5.31 ± 0.33 nmol/mg of protein; Nitrites, hypothalamus [2, 5]: 6.77 ± 0.46 nmol/mg of protein; Nitrites, midbrain [2, 5]: 5.95 ± 0.52 nmol/mg of protein; Nitrites, striatum [2, 5]: 3.57 ± 0.42 nmol/mg of protein; Activity of NOS, hippocampus [3, 4]: 3.09 ± 0.16 nmol/min/mg of protein; Activity of NOS, hypothalamus [3, 4]: 5.45 ± 0.24 nmol/min/mg of protein; Activity of NOS, midbrain [3, 4]: 2.60 ± 0.29 nmol/min/mg of protein; Activity of NOS, striatum [3, 4]: 1.26 ± 0.08 nmol/min/mg of protein; Activity of NOS, hippocampus [3, 5]: 2.65 ± 0.15 nmol/min/mg of protein; Activity of NOS, hypothalamus [3, 5]: 5.56 ± 0.34 nmol/min/mg of protein; Activity of NOS, midbrain [3, 5]: 1.89 ± 0.27 nmol/min/mg of protein; Activity of NOS, striatum [3, 5]: 1.34 ± 0.09 nmol/min/mg of protein
